Test results published in paper PMC4907642 (Journal of medicinal chemistry, 2015).

Key:
[1] = target: EML4-ALK G1202R transformed Ba/F3 cells (Homo sapiens, UniProt Q9HC35+Q9UM73, G1202R); details: 1 µM, result in words
panel of 456 kinases = details: 1 µM

EML4-ALK G1202R transformed Ba/F3 cells, sequence (Q9UM73 1058-1620 G1202R limits assumed, one chain of several): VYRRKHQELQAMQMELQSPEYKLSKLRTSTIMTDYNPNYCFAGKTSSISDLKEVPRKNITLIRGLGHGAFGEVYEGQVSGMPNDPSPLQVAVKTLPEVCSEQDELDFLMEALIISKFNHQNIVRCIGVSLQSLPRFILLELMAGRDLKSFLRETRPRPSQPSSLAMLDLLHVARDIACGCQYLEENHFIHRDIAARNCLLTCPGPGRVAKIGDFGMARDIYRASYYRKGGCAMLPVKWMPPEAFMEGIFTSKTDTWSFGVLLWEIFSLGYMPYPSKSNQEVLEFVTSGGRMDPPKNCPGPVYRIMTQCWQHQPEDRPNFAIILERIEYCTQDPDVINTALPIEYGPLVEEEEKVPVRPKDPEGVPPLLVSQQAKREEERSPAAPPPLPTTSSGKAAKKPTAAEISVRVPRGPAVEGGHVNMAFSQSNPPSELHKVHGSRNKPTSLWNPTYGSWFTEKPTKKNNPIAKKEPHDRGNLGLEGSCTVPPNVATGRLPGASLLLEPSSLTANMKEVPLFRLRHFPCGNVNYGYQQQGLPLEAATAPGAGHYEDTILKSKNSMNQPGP

Row | SMILES | single point inhibition of the G1202R mutant [1] | KINOMEscan interactions mapped (panel of 456 kinases)
1 | CCc1cc2c(cc1-c1cn[nH]c1)C(C)(C)c1[nH]c3cc(C#N)ccc3c1C2=O [Compound 8, 9-ethyl-6,6-dimethyl-11-oxo-8-(1H-pyrazol-4-yl)-6,11-dihydro-5H-benzo[b]carbazole-3-carbonitrile] | quite potent | 
2 | CCc1cc2c(cc1-c1ccoc1)C(C)(C)c1[nH]c3cc(C#N)ccc3c1C2=O [Compound 11, 9-ethyl-8-(furan-3-yl)-6,6-dimethyl-11-oxo-6,11-dihydro-5H-benzo[b]carbazole-3-carbonitrile] | much less inhibitory activity | 
3 | CCc1cc2c(cc1-c1cnn(C(=O)N(C)C)c1)C(C)(C)c1[nH]c3cc(C#N)ccc3c1C2=O [Compound 36, 4-(3-cyano-9-ethyl-6,6-dimethyl-11-oxo-6,11-dihydro-5H-benzo[b]carbazol-8-yl)-N,N-dimethyl-1H-pyrazole-1-carboxamide] | quite potent | 
4 | CCc1cc2c(cc1[C@H](O)CO)C(C)(C)c1[nH]c3cc(C#N)ccc3c1C2=O [Compound 23, (S)-8-(1,2-dihydroxyethyl)-9-ethyl-6,6-dimethyl-11-oxo-6,11-dihydro-5H-benzo[b]carbazole-3-carbonitrile] | much less potent | 
5 | CCc1cc2c(cc1-c1cc[nH]n1)C(C)(C)c1[nH]c3cc(C#N)ccc3c1C2=O [Compound 9, 9-ethyl-6,6-dimethyl-11-oxo-8-(1H-pyrazol-3-yl)-6,11-dihydro-5H-benzo[b]carbazole-3-carbonitrile] | quite potent | 
6 | CCc1cc2c(cc1/C=C/CN1CCOCC1)C(C)(C)c1[nH]c3cc(C#N)ccc3c1C2=O [Compound 25, (E)-9-ethyl-6,6-dimethyl-8-(3-morpholinoprop-1-en-1-yl)-11-oxo-6,11-dihydro-5H-benzo[b]carbazole-3-carbonitrile] | no activity | 
7 | CCc1cc2c(cc1-c1cnn(CCCN(C)C)c1)C(C)(C)c1[nH]c3cc(C#N)ccc3c1C2=O [Compound 32, 8-(1-(3-(dimethylamino)propyl)-1H-pyrazol-4-yl)-9-ethyl-6,6-dimethyl-11-oxo-6,11-dihydro-5H-benzo[b]carbazole-3-carbonitrile] |  | 39
8 | CCc1cc2c(cc1-c1cccs1)C(C)(C)c1[nH]c3cc(C#N)ccc3c1C2=O [Compound 12, 9-ethyl-6,6-dimethyl-11-oxo-8-(thiophen-2-yl)-6,11-dihydro-5H-benzo[b]carbazole-3-carbonitrile] | much less inhibitory activity | 
9 | CCc1cc2c(cc1C#N)C(C)(C)c1[nH]c3cc(C#N)ccc3c1C2=O [Compound 21, 9-ethyl-6,6-dimethyl-11-oxo-6,11-dihydro-5H-benzo[b]carbazole-3,8-dicarbonitrile] | much less potent | 
10 | CCc1cc2c(cc1-c1cnn(C)c1)C(C)(C)c1[nH]c3cc(C#N)ccc3c1C2=O [Compound 7, 9-ethyl-6,6-dimethyl-8-(1-methyl-1H-pyrazol-4-yl)-11-oxo-6,11-dihydro-5H-benzo[b]carbazole-3-carbonitrile] | quite potent | 
11 | CCc1cc2c(cc1C(=O)O)C(C)(C)c1[nH]c3cc(C#N)ccc3c1C2=O [Compound 24, 3-cyano-9-ethyl-6,6-dimethyl-11-oxo-6,11-dihydro-5H-benzo[b]carbazole-8-carboxylic acid] | much less potent | 
12 | CCc1cc2c(cc1N1CCC(N(C)C)CC1)C(C)(C)c1[nH]c3cc(C#N)ccc3c1C2=O [Compound 17, 8-(4-(dimethylamino)piperidin-1-yl)-9-ethyl-6,6-dimethyl-11-oxo-6,11-dihydro-5H-benzo[b]carbazole-3-carbonitrile] | potent inhibition | 
13 | CCc1cc2c(cc1[C@@H](O)CO)C(C)(C)c1[nH]c3cc(C#N)ccc3c1C2=O [Compound 22, (R)-8-(1,2-dihydroxyethyl)-9-ethyl-6,6-dimethyl-11-oxo-6,11-dihydro-5H-benzo[b]carbazole-3-carbonitrile] | much less potent | 
14 | CCc1cc2c(cc1-c1cnn(C(C)(C)C(=O)N(C)C)c1)C(C)(C)c1[nH]c3cc(C#N)ccc3c1C2=O [Compound 35, 2-(4-(3-cyano-9-ethyl-6,6-dimethyl-11-oxo-6,11-dihydro-5H-benzo[b]carbazol-8-yl)-1H-pyrazol-1-yl)-N,N,2-trime-thylpropanamide] | quite potent | 
15 | CCc1cc2c(cc1N1CCN(C)CC1)C(C)(C)c1[nH]c3cc(C#N)ccc3c1C2=O [Compound 19, 9-ethyl-6,6-dimethyl-8-(4-methylpiperazin-1-yl)-11-oxo-6,11-dihydro-5H-benzo[b]carbazole-3-carbonitrile] | potent inhibition | 
